Molecular target: T1, Adrenergic α1B (Rattus norvegicus, UniProt P15823)
T1 sequence (P15823 1-515): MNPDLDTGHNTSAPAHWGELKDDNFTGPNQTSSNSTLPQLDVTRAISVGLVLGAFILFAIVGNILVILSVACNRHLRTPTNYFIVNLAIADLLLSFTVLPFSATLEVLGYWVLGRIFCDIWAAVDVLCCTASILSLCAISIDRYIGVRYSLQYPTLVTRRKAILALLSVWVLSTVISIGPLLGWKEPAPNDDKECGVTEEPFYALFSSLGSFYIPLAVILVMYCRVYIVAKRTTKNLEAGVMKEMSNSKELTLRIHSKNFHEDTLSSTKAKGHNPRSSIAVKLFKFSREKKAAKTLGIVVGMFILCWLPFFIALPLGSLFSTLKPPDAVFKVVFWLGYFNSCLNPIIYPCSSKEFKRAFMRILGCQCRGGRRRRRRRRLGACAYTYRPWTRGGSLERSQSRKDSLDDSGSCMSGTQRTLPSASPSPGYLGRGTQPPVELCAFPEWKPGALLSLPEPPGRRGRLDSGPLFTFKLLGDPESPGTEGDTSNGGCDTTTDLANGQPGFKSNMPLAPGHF
Assay: Radioligand binding assay, Adrenergic α1B
Text: . Table 1 provides data produced via a receptor binding assay and IC50 and Ki determination. […] In addition, the compound of formula (Ia) has a potent DAT inhibition, which is indicative of dopaminergic uptake inhibition and increased DA activity. In addition to the effect on SERT and DAT, the compound of formula (Ia) inhibited the transporter of Norepinephrine (NET), and several neurotransmitter's receptors like alpha2A and alpha2C receptors, alpha 1A and alphal C, 5HT2A and 5HT2C, signal histamine2 and dopamine D1. This specific profile is in line with the data on antidepressant, anxiolytic and moderate neuro-stimulation activity observed in the animal model studies.
With regard to the data provided in Table 1, the biochemical assay results are presented as the percent inhibition of specific binding or activity throughout the report. For primary assays, only the lowest concentration with a significant response judged by the assays’ criteria, is shown in this summary. […] Unless otherwise requested, primary screening in duplicate with quantitative data (e.g., IC50±SEM, Ki±SEM and nH) are shown.

Compound: CN[C@H]1CC[C@@H](c2ccc(Cl)c(Cl)c2)c2ccc(C#CCCCO)cc21 [compound Ia, (1S-cis)-4-(3,4-dichlorophenyl)-7-(5-hydroxy-1-pentyn-1-yl)-1,2,3,4-tetrahydro-N-methyl-1-naphthalenamine hydroiodide]
- IC50: 562 nM
- nH: 1.08
- inhibition at 1 µM (1 μM): 63%
- Ki (read-out: K1): 311 nM

— patent publication US20100130549A1, “PSYCHOTROPIC COMPOUNDS, COMPOSITIONS AND METHODS OF USE” (priority 2007, published 2010)
